Laboratory results as given in patent publication US6765096B1, “Tricyclic compound having acyloxymethoxycarbonyl side chain” (Shionogi & Co., Ltd., priority 1999, dated 2004).

Experiments:
[1] = Oral absorption test, fasting rat (Test Examples 2 and 3); type: in vivo, Jcl:SD male rat; settings: rat 18 hours fasting
Procedure: Test Example 2 Oral Absorption Test
(§1) The present compound (I-1) was ground with an agate mortar, which was prepared into an aqueous suspension having the concentration of 10 mg/mL using a 0.5% aqueous methylcellulose solution as a vehicle. Each compound was orally administered to a Jcl:SD male rat (10 weeks old, 18 hours fasting) as a parent compound at a rate of 20 mg/kg. 0.5, 1, 2, 4, 6, 8 and 24 hours after administration, 0.3 mL of blood was taken from a cannula inserted in rat jugular in advance. The blood was centrifuged to obtain a plasma. 0.5 mL of a mixed solution of methanol and acetonitrile (1/1 (w/w)) was added to 0.1 mL of the plasma, proteins were removed therefrom, followed by centrifugation. The supernatant was used as a HPLC sample.
The oral absorbabilities of the present compound (I-163) and its parent compound (II-4) were measured as in Test Example 2.

[2] = system: anti-ovalbumin (OVA) IgE antibody production; assay: IgE antibody production inhibiting effects against anti-ovalbumin (OVA); anti-OVA IgE antibody titer (PCA titer); type: in vivo, BALB/c mice; settings: consecutive 10 days, OVA-immunized BALB/c mouse, Log2 of maximum serum dilution giving PCA positive reaction in Wistar rat
Procedure: Test Example 1 IgE Antibody Production Inhibiting Effects Against Anti-ovalbumin (OVA)
BALB/c mice (female, 8-10 weeks old) and Wistar rats (female, 8-10 weeks old) purchased from Japan SLC (Shizuoka) were used.
2) Method of Immunization
0.2 mL of a solution obtained by suspending 2 μg of ovalbumin (OVA) and 2 mg of aluminium hydroxide gel in a physiological saline was injected in a BALB/c mouse intraperitoneally to immunize it. After ten days, blood was taken from the heart, serum was separated, and stored at −40° C. until the IgE antibody titer was measured.
[…] Administration was carried out for consecutive 10 days from an immunization day to the day before a blood collection day.
4) Measurement of Anti-OVA IgE Antibody Titer (PCA Titer)
The resulting mouse serum was prepared into a 2-fold dilution series using a physiological saline, each 50 μl of which was injected to a pre-haircut Wistar rat intracutaneously at a back. After 24 hours, 0.5 mL of a physiological saline containing 1 mg of OVA and 5 mg of Evans Blue pigment was injected intravenously to induce passive cutaneous anaphylaxis reaction (PCA). After 30 minutes, a maximum dilution rate of the serum showing PCA positive reaction of a pigment spot having a diameter of 5 mm or more was determined, and Log2 of its dilution rate was adopted as a PCA titer. For example, when a serum becomes PCA reaction positive until 2^7-fold dilution, an anti-OVA IgE antibody titer of the mouse is 7.

[3] = Oral absorption test, non-fasting rat (Test Example 4); type: in vivo
Procedure: as §1
Test Example 4 Oral Absorption Test
The oral absorbabilities of the present compound (I-16) and its parent compound (II-1) were measured as in Test Example 2 using a non-fasting rat.

[4] = oral administration, only parent compound (II-1) observed
[5] = plasma concentration of parent compound after oral administration, 20 mg/kg as parent compound
[6] = plasma concentration of parent compound (II-1) after oral administration

CC(C)=CCOc1ccc(-c2cc(C)c(-c3ccc(N(CC=C(C)C)C(=O)OCOC(=O)CCC(N)=O)cc3F)cc2C)cn1 [Compound I-1]
administered prodrug itself in the circulating plasma [1, 4]: not detected | AUC [1, 5]: 32030 ng·h/mL | Cmax [1, 5]: 2500 ng/mL | anti-OVA IgE antibody titer (PCA titer) ([2]; 3 mg/Kg orally): 7.0 | anti-OVA IgE antibody titer (PCA titer) ([2]; 10 mg/Kg orally): 0.8

CC(=O)NC(CCC(=O)OCOC(=O)N(CC=C(C)C)c1ccc(-c2cc(C)c(-c3ccc(OCC=C(C)C)nc3)cc2C)c(F)c1)C(N)=O (stereo not drawn) [Compound I-6, 4-acetylamino-4-carbamoyl-butyric acid [{2-fluoro-2′,5′-dimethyl-4′-[6-(3-methyl-but-2-enyloxy)-pyridin-3-yl]-biphenyl-4-yl}-(3-methyl-but-2-enyl)-carbamoyloxy]-methyl ester]
anti-OVA IgE antibody titer (PCA titer) ([2]; 10 mg/Kg orally): 1.8

CC(=O)NC(CC(N)=O)C(=O)OCOC(=O)N(CC=C(C)C)c1ccc(-c2cc(C)c(-c3ccc(OCC=C(C)C)nc3)cc2C)c(F)c1 (stereo not drawn) [Compound I-13, 2-acetylamino-succinamic acid [{2-fluoro-2′,5′-dimethyl-4′-[6-(3-methyl-but-2-enyloxy)-pyridin-3-yl]-biphenyl-4-yl}-((E)-3-methyl-but-2-enyl)-carbamoyloxy]-methylester]
anti-OVA IgE antibody titer (PCA titer) ([2]; 10 mg/Kg orally): <0

CC(=O)NC(CCC(N)=O)C(=O)OCOC(=O)N(CC=C(C)C)c1ccc(-c2cc(C)c(-c3ccc(OCC=C(C)C)nc3)cc2C)c(F)c1 (stereo not drawn) [Compound I-15, 2-acetylamino-4-carbamoyl-butyric acid [{2-fluoro-2′,5′-dimethyl-4′-[6-(3-methyl-but-2-enyloxy)-pyridin-3-yl]-biphenyl-4-yl}-((E)-3-methyl-but-2-enyl)-carbamoyloxy]-methyl ester]
anti-OVA IgE antibody titer (PCA titer) ([2]; 10 mg/Kg orally): 0

CC(=O)NCC(=O)NCC(=O)OCOC(=O)N(CC=C(C)C)c1ccc(-c2cc(C)c(-c3ccc(OCC=C(C)C)nc3)cc2C)c(F)c1 [Compound I-16, (2-acetylamino-ethanoylamino)-acetic acid [{2-fluoro-2′,5′-dimethyl-4′-[6-(3-methyl-but-2-enyloxy)-pyridin-3-yl]-biphenyl-4yl]}-((E)-3-methyl-but-2-enyl)-carbamoyloxy]-methyl ester]
administered prodrug itself in the circulating plasma [3, 4]: not detected | AUC [3, 6]: 165520 ng·h/mL | Cmax [3, 6]: 16020 ng/mL | anti-OVA IgE antibody titer (PCA titer) ([2]; 10 mg/Kg orally): <0
